Measured values as given in patent US20130245081A1, “Compositions and Methods for Treating Amyotrophic Lateral Sclerosis” (priority 2009, published 2013).
Where “and” joins values, the source holds several entries; their conditions need not be identical. Equal entries are not always repeated. Where two headings read alike, the source gives them in different places.

Test system: patients with ALS
Conditions: for subjects who died (incl. after discontinuation): double-blind period through Week 28; for total number of deaths: first 24-week randomized active treatment period

## CCCN[C@@H]1CCc2nc(N)sc2C1 [dexpramipexole, (6R)-2-amino-4,5,6,7-tetrahydro-6-(propylamino)benzothiazole]
50 mg
  Unadjusted Slope Estimate, Bulbar: −0.364
  Unadjusted Slope Estimate, Fine: −0.311
  Unadjusted Slope Estimate, Gross: −0.305
  Unadjusted Slope Estimate, Resp: −0.270
  Zero Imputation Slope Estimate, Bulbar: −0.578
  Zero Imputation Slope Estimate, Fine: −0.440
  Zero Imputation Slope Estimate, Gross: −0.390
  Zero Imputation Slope Estimate, Resp: −0.575
  subjects who died (incl. after discontinuation): 9 (19%) N (%) and 9 N (%)
  total number of deaths: 7
50 mg versus 300 mg, through Week 28, p=0.046
  joint rank test of survival and ALSFRS-R (generalized Gehan Wilcoxon test): statistically significant difference
50 mg, Endpoint of Part 2
  McGill SIS, Mean (SE): 5.9 (0.38)
  McGill SIS, Mean Δ (SE) from baseline: −0.5 (0.27)
  McGill SIS, Median Δ: 0.0
  Upright Vital Capacity, Mean (SE): 62.2 (4.19) % predicted
  Upright Vital Capacity, Mean Δ (SE) from baseline of Part 2: −14.6 (3.54) % predicted
  Upright Vital Capacity, Median Δ: −11.5 % predicted
50 mg, Week 8
  McGill SIS, Mean (SE): 6.2 (0.37)
  McGill SIS, Mean Δ (SE) from baseline: −0.2 (0.19)
  McGill SIS, Median Δ: 0.0
  Upright Vital Capacity, Mean (SE): 73.7 (2.92) % predicted
  Upright Vital Capacity, Mean Δ (SE) from baseline of Part 2: −3.2 (1.67) % predicted
  Upright Vital Capacity, Median Δ: −1.9 % predicted
50 mg, Week 12
  McGill SIS, Mean (SE): 6.5 (0.34)
  McGill SIS, Mean Δ (SE) from baseline: −0.1 (0.20)
  McGill SIS, Median Δ: 0.0
  Upright Vital Capacity, Mean (SE): 72.9 (3.82) % predicted
  Upright Vital Capacity, Mean Δ (SE) from baseline of Part 2: −4.0 (2.19) % predicted
  Upright Vital Capacity, Median Δ: −3.1 % predicted
50 mg, Week 16
  McGill SIS, Mean (SE): 6.1 (0.37)
  McGill SIS, Mean Δ (SE) from baseline: −0.3 (0.22)
  McGill SIS, Median Δ: 0.0
50 mg, Week 20
  McGill SIS, Mean (SE): 6.1 (0.33)
  McGill SIS, Mean Δ (SE) from baseline: −0.7 (0.22)
  McGill SIS, Median Δ: −1.0
  Upright Vital Capacity, Mean (SE): 75.8 (4.02) % predicted
  Upright Vital Capacity, Mean Δ (SE) from baseline of Part 2: −6.0 (3.36) % predicted
  Upright Vital Capacity, Median Δ: −7.2 % predicted
50 mg, Week 24
  McGill SIS, Mean (SE): 6.3 (0.43)
  McGill SIS, Mean Δ (SE) from baseline: −0.4 (0.23)
  McGill SIS, Median Δ: 0.0
50 mg, Week 28
  McGill SIS, Mean (SE): 5.9 (0.45)
  McGill SIS, Mean Δ (SE) from baseline: −0.7 (0.23)
  McGill SIS, Median Δ: 0.0
  Upright Vital Capacity, Mean (SE): 69.5 (3.79) % predicted
  Upright Vital Capacity, Mean Δ (SE) from baseline of Part 2: −12.4 % predicted and −12.4 (3.00) % predicted
  Upright Vital Capacity, Median Δ: −10.4 % predicted
  decline in ALSFRS-R scores (repeated measures mixed effect model): −7.05
50 mg, through Week 28
  did not require tracheostomy and did not die: 81%
  mean change from baseline in ALSFRS-R total score: −6.5
  slope estimate of ALSFRS-R scores (linear mixed effects model): −1.283
  slope of ALSFRS-R total scores, zero imputed for first post-death visit: −2.05
  slope of upright vital capacity (linear mixed effects, unadjusted): −2.452
  subjects with feeding tubes placed: 9 (19%) N (%)
300 mg
  Unadjusted Slope Estimate, Bulbar: −0.310
  Unadjusted Slope Estimate, Fine: −0.211
  Unadjusted Slope Estimate, Gross: −0.320
  Unadjusted Slope Estimate, Resp: −0.186
  Zero Imputation Slope Estimate, Bulbar: −0.376
  Zero Imputation Slope Estimate, Fine: −0.238
  Zero Imputation Slope Estimate, Gross: −0.338
  Zero Imputation Slope Estimate, Resp: −0.255
  subjects who died (incl. after discontinuation): 3 (7%) N (%) and 3 N (%)
  total number of deaths: 2
300 mg compared with 50 mg
  attenuation of decline in vital capacity (adjusted slopes): 21% and 18%
300 mg vs 50 mg
  Unadjusted Slope Estimate, Bulbar, % reduction: 14.84%
  Unadjusted Slope Estimate, Fine, % reduction: 32.15%
  Unadjusted Slope Estimate, Gross, % reduction: −4.92%
  Unadjusted Slope Estimate, Resp, % reduction: 31.11%
  Zero Imputation Slope Estimate, Bulbar, % reduction: 34.95%
  Zero Imputation Slope Estimate, Fine, % reduction: 45.91%
  Zero Imputation Slope Estimate, Gross, % reduction: 13.33%
  Zero Imputation Slope Estimate, Resp, % reduction: 55.65%
  reduction in decline of ALSFRS-R slope, zero imputation: 42%
300 mg vs 50 mg, Week 28
  smaller decline in ALSFRS-R scores (repeated measures model): 19.7%
300 mg, Endpoint of Part 2
  McGill SIS, Mean (SE): 6.1 (0.35)
  McGill SIS, Mean Δ (SE) from baseline: −0.8 (0.30)
  McGill SIS, Median Δ: −1.0
  Upright Vital Capacity, Mean (SE): 61.1 (3.94) % predicted
  Upright Vital Capacity, Mean Δ (SE) from baseline of Part 2: −20.3 (2.88) % predicted
  Upright Vital Capacity, Median Δ: −14.3 % predicted
300 mg, Week 8
  McGill SIS, Mean (SE): 6.9 (0.32)
  McGill SIS, Median Δ: 0.0
  Upright Vital Capacity, Mean (SE): 80.3 (3.20) % predicted
  Upright Vital Capacity, Mean Δ (SE) from baseline of Part 2: −1.4 (0.91) % predicted
  Upright Vital Capacity, Median Δ: −0.8 % predicted
300 mg, Week 12
  McGill SIS, Mean (SE): 6.5 (0.37)
  McGill SIS, Mean Δ (SE) from baseline: −0.4 (0.25)
  McGill SIS, Median Δ: 0.0
  Upright Vital Capacity, Mean (SE): 78.5 (3.34) % predicted
  Upright Vital Capacity, Mean Δ (SE) from baseline of Part 2: −4.2 (1.91) % predicted
  Upright Vital Capacity, Median Δ: −4.3 % predicted
300 mg, Week 16
  McGill SIS, Mean (SE): 6.4 (0.33)
  McGill SIS, Mean Δ (SE) from baseline: −0.4 (0.23)
  McGill SIS, Median Δ: 0.0
300 mg, Week 20
  McGill SIS, Mean (SE): 6.4 (0.34)
  McGill SIS, Mean Δ (SE) from baseline: −0.5 (0.30)
  McGill SIS, Median Δ: 0.0
  Upright Vital Capacity, Mean (SE): 70.8 (3.77) % predicted
  Upright Vital Capacity, Mean Δ (SE) from baseline of Part 2: −10.6 (1.58) % predicted
  Upright Vital Capacity, Median Δ: −9.0 % predicted
300 mg, Week 24
  McGill SIS, Mean (SE): 6.3 (0.36)
  McGill SIS, Mean Δ (SE) from baseline: −0.7 (0.30)
  McGill SIS, Median Δ: 0.0
300 mg, Week 28
  McGill SIS, Mean (SE): 6.0 (0.38)
  McGill SIS, Mean Δ (SE) from baseline: −0.9 (0.31)
  McGill SIS, Median Δ: −1.0
  Upright Vital Capacity, Mean (SE): 67.3 (4.44) % predicted
  Upright Vital Capacity, Mean Δ (SE) from baseline of Part 2: −15.1 % predicted and −15.1 (2.63) % predicted
  Upright Vital Capacity, Median Δ: −11.5 % predicted
  decline in ALSFRS-R scores (repeated measures mixed effect model): −5.66
300 mg, through Week 28
  did not require tracheostomy and did not die: 93%
  mean change from baseline in ALSFRS-R total score: −6.2
  slope estimate of ALSFRS-R scores (linear mixed effects model): −1.021
  slope of ALSFRS-R total scores, zero imputed for first post-death visit: −1.19
  slope of upright vital capacity (linear mixed effects, unadjusted): −3.067
  subjects with feeding tubes placed: 6 (14%) N (%)
